Measurements reported in patent publication US9610320B2, “Surgical applications for BMP binding protein” (THE REGENTS OF THE UNIVERSITY OF CALIFORNIA, priority 2004, dated 2017).
Entries after “also recorded” stand apart in the source; their conditions may differ.

Assays:
rhBMP-2 [1] = target: T1, rhBMP-2 (Homo sapiens, UniProt P12643); assay: Residence time study: BBP and rhBMP-2 on collagen sponges in muscle pouches; assay type: in vivo, rodents
T1 sequence (P12643 283-396): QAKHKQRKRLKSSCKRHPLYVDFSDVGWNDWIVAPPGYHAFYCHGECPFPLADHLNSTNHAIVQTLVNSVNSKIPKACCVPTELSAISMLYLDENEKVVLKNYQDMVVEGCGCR
Source text: Methods: Labeled rhBMP-2 was mixed with BBP or vehicle and applied to collagen sponges. The sponges were implanted into muscle pouches in rodents. At specified times (1, 3 and 7 days), the implants were removed and the amount of BMP remaining determined. Four animals were used in each group.

Lewis rats [2] = assay: Rat posterolateral intertransverse process spinal fusion L4-L5 (Example 6); assay type: in vivo; settings: Group 1: BBP 500 μg only, week 8
Experimental: All rats underwent post-operative radiography at 2, 4, 6, and 8 weeks. Manual spinal palpation was performed at 8 weeks, the time of sacrifice. Bone formation was assessed in histological sections stained with H&E.

male Swiss-Weber mice = assay: Mouse hindquarter (muscle pouch) ectopic bone formation assay, BBP; assay type: in vivo; settings: for Bone Area / Bone Mineral Content: densitometry
Experimental: Methods: The osteogenic activity of material was tested using male Swiss-Weber mice aged 8 to 10 weeks were used (Taconic Farms, Germantown, N.Y.). Prior to the assay, the BBP was solublized and lyophilized into 2 mg of atelocollagen. The dried material was placed in a #5 gelatin capsule and sterilized by exposure to chloroform vapor. To conduct the assay, mice were anesthetized using 1% isoflurane delivered in oxygen at 2 l/min through a small animal anesthesia machine (VetEquip, Pleasanton, Calif.). Animals were affixed to a surgery board and the fur over the hindquarters shaved. The skin was cleaned with 70% ethanol and a midline incision made over the spine adjacent to the hindquarters. Blunt dissection with scissors was used to expose the quadriceps muscle on one side. A small pouch was made in the muscle using the point of scissors and the #5 capsule containing the test material was inserted into the pouch. The skin was then closed with three 11 mm Michel surgical clips and the animal returned to its cage for monitoring.
After 21 days the animals were killed and the hindquarter removed. Radiological examination of the specimens was accomplished using a small parts X-Ray cabinet (Faxitron, Wheeling, Ill.). For quantization of bone formation, bone area and the bone mineral content (BMC) of an area of interest encompassing the site of ectopic bone formation was determined using a PIXImus2 small animal densitometer (GE Lunar, Madison, Wis.). Specimens were then placed in buffered formalin and submitted for routine processing for histological examination.

rhBMP-2 [3] = target: T1, rhBMP-2; assay: Surface plasmon resonance, interaction of rhBMP-2 and BBP; assay type: binding; settings: BBP decyclized by prior reduction with β-mercaptoethanol
Experimental: Buffers and chips for the procedure were obtained from Biacore. […] This material was then attached to a CM-5 sensor chip using reagents and procedures supplied by the manufacturer. Running butter was 10 mM HEPES, pH 7.4, 150 mM NaCl, 3 mM EDTA, 0.005% Surfactant P20, The peptide was dissolved in running buffer at concentrations ranging from 1×10^−5 to 1×10^−4 M. Flow rates from 5 to 50 μl/mm and injection volumes of 20 to 100 μl were employed. The regeneration solution was […] glycine-HCl, pH 2.0.

Lewis rats [4] = assay: Rat posterolateral intertransverse process spinal fusion L4-L5 (Example 8); assay type: in vivo; settings: for Histology, fused / Manual Palpation, fused: 8th week
Experimental: Methods: Posterolateral intertransverse process spinal fusion at L4-L5 was performed in five treatment groups of Lewis rats each, and collagen sponges (5×5×13 mm) were implanted into the surgical sites.
Each sponge was placed in a sterile microfuge tube and either a suspension of BBP (500 μg or 1000 μg) in water or sterile water alone was applied. The sponges were allowed to air dry in a tissue culture hood overnight and then placed at −70° C. for an hour and lyophilized overnight. The tubes (with small holes in the top to allow for lyophilization) were placed in autoclave pouches and sealed. The materials were then sterilized by exposure to chloroform vapor for at least 4 hours.
The posterolateral intertransverse process spinal fusion at L4-L5 in the rat is a well established procedure in our laboratory 13-17. Briefly, the animal was anesthetized with isofluane and the surgical site was shaved and propped with Betadyne and alcohol. A 3 cm longitudinal midline incision was made through the skin and subcutaneous tissue over L4-L5 down to the lumbodorsal fascia. Then, two separate 2 cm longitudinal paramedial incisions were made in the erector spinae muscles on both sides of L4-L5. The transverse processes of L4-L5 were exposed, cleaned of soft tissue, and decorticated with a high-speed burr. The site was irrigated with saline and the therapeutic test material was placed. The lumbodorsal fascia was closed with 4-0 Prolene (Ethicon, Somerville, N.J.). The skin was closed with 4-0 Prolene and meticulous post-operative care was provided.
These were compared to control groups. Fusion was evaluated by radiology, histology and manual palpation tests. Animals were sacrificed 8 weeks after surgery.
The results of the surgeries were assessed radiologically, histologically, and by manual palpation. Posteroanterior radiographs were obtained using a small parts X-ray cabinet (Faxitron Corp., Wheeling, Ill.) on each animal at 2, 4, 6 and 8 weeks. Radiograms were evaluated by three independent observers employing the following standardized scale: 0: no fusion; 1: incomplete fusion with bone formation present; and 2: complete fusion. The scores from the three observes were added and a total of 5 or 6 was regarded as “fused”. Manual palpation of the spine was performed at the time of sacrifice at 8 weeks. To simulate the gold standard for determining fusion in humans, exploration and manual palpation of the fusion mass were performed after death. The level fused was manually palpated with Adson forceps and compared with the adjacent nonfused levels. Each specimen was graded as fused or non-fused by three independent observers. The spine was designated as “not fused” if any of the three observers graded the spine as not fused. After manual palpation, the specimens were decalcified using standard 10% decalcifying solution HCl (Cal-Ex, Fisher Scientific, Fairlawn, N.J.), washed with running tap water, then transferred to 75% ethanol. Sagittal sections were cut carefully at the level of the transverse process. The specimens were imbedded in paraffin and sections of each specimen obtained. These sections were stained with hematoxylin and eosin. They were evaluated by an independent observer as fused and not fused.
The proportions of subjects in each group judged to be “fused” were compared in sequential two group comparisons with Fisher's exact test using SPSS software. A p score of less than or equal to 0.05 was set for statistical significance.

Lewis rats [5] = assay: Rat posterolateral intertransverse process spinal fusion L4-L5 (Example 7); assay type: in vivo; settings: week 8
Experimental: Methods: Five groups of 50 Lewis rats each underwent posterolateral intertransverse process spinal fusion at vertebrae L4-L5 with implanted: BBP (500 μg) (Group 1); BBP (1000 μg) (Group 2), collagen plus low dose BMP-2 (1 μg) (Group 3), BBP (500 μg) plus low dose BMP (1 μg) (Group 4) and BBP (1000 μg) plus low dose BMP (1 μg) (Group 5). Control groups included a negative group (decortication) and positive control group (collagen plus 3 μg BMP).
All rats underwent post-operative radiography at 2, 4, 6, and 8 weeks. Manual spinal palpation was performed at 8 weeks, after the time of sacrifice. Bone formation was assessed in histological sections stained with H&E.

[6] = BBP 50 μg implanted with 5 μg rhBMP-2, 21 days
[7] = BBP 500 μg implanted with 5 μg rhBMP-2, 21 days

Compound: CSCC[C@@H]1NC(=O)[C@H](CCCNC(=N)N)NC(=O)[C@H](C(C)C)NC(=O)[C@H]([C@@H](C)O)NC(=O)[C@H](CO)NC(=O)[C@H](CCCNC(=N)N)NC(=O)[C@@H](N)CSSC[C@@H](C(=O)O)NC(=O)[C@H](CCCNC(=N)N)NC(=O)[C@H](C(C)C)NC(=O)[C@H](Cc2c[nH]c3ccccc23)NC(=O)[C@H](C(C)C)NC(=O)[C@H](CC(N)=O)NC(=O)[C@H](CCC(N)=O)NC(=O)[C@H](C(C)C)NC(=O)[C@H](CCC(N)=O)NC(=O)[C@H](CCC(=O)O)NC(=O)[C@H](C)NC(=O)[C@H](CO)NC1=O [BBP]
- increase of rhBMP-2 retention (factor) (rhBMP-2 [1]; collagen sponges in muscle pouches, 1, 3 and 7 days, versus vehicle): about two
- retention of rhBMP-2 (fold) (rhBMP-2 [1]; for up to seven days in vitro and in vivo): two
- Fusion Rates (Lewis rats [2]): 14%
- calcification after implantation of BBP alone (male Swiss-Weber mice; 500 μg BBP in atelocollagen, mouse muscle, 21 days, radiogram/histology): induced calcification; also recorded: dystrophic calcification primarily associated with intramuscular adipose tissue; also recorded: ectopic dystrophic calcification formation
- amount of ectopic bone formed versus rhBMP-2 alone (male Swiss-Weber mice; 500 μg BBP with 5 μg rhBMP-2, densitometry): consistently greater
- Bone Area (male Swiss-Weber mice; [6]): 0.159 ± 0.0606 cm^2
- Bone Mineral Content (male Swiss-Weber mice; [6]): 0.00388 ± 0.0017 g
- Bone Area (male Swiss-Weber mice; [7]): 0.226 ± 0.0270 cm^2
- Bone Mineral Content (male Swiss-Weber mice; [7]): 0.00528 ± 0.00068 g
- binding to rhBMP-2 (rhBMP-2 [3]): no significant binding
- fusion with BBP alone (Lewis rats [4]; 500 μg or 1000 μg BBP alone, any time point): none of the animals in low and high dose BBP groups developed fusion at any time points; also recorded: did not provide fusion
- radiological examination, fused, Week 2nd (Lewis rats [4]; high dose BBP only (1000 μg)): 0%
- radiological examination, fused, Week 4th (Lewis rats [4]; high dose BBP only (1000 μg)): 0%
- radiological examination, fused, Week 6th (Lewis rats [4]; high dose BBP only (1000 μg)): 0%
- radiological examination, fused, Week 8th (Lewis rats [4]; high dose BBP only (1000 μg)): 0%
- Histology, fused (Lewis rats [4]; high dose BBP only (1000 μg)): 0%
- Manual Palpation, fused (Lewis rats [4]; high dose BBP only (1000 μg)): 0%
- radiological examination, fused, Week 2nd (Lewis rats [4]; low dose BBP only (500 μg)): 0%
- radiological examination, fused, Week 4th (Lewis rats [4]; low dose BBP only (500 μg)): 0%
- radiological examination, fused, Week 6th (Lewis rats [4]; low dose BBP only (500 μg)): 0%
- radiological examination, fused, Week 8th (Lewis rats [4]; low dose BBP only (500 μg)): 0%
- Histology, fused (Lewis rats [4]; low dose BBP only (500 μg)): 0%
- Manual Palpation, fused (Lewis rats [4]; low dose BBP only (500 μg)): 0%
- fusion by manual palpation (Lewis rats [5]; Group 1: BBP 500 μg only): 0%
- fusion by manual palpation (Lewis rats [5]; Group 2: BBP 1000 μg only): 0%
